Assay results from the kinase profiling compilation of Christmann-Franck et al. (2016).

Columns and labels:
Assay in all cases: radiometric filter-binding kinase assay, Kinase HotSpot
Conditions in all cases: compound 0.5 µM; ATP 10 µM
PIM1 (human) = PIM1 (human) (UniProt P11309)
EPHA8 (human) = EPHA8 (human) (UniProt P29322)
FYN (human) = FYN (human) (UniProt P06241)
CAMK4 (human) = CAMK4 (human) (UniProt Q16566)
MARK1 (human) = MARK1 (human) (UniProt Q9P0L2)
SLK (human) = SLK (human) (UniProt Q9H2G2)
NEK6 (human) = NEK6 (human) (UniProt Q9HC98)
NEK6 (human), sequence (Q9HC98 whole entry, looked up): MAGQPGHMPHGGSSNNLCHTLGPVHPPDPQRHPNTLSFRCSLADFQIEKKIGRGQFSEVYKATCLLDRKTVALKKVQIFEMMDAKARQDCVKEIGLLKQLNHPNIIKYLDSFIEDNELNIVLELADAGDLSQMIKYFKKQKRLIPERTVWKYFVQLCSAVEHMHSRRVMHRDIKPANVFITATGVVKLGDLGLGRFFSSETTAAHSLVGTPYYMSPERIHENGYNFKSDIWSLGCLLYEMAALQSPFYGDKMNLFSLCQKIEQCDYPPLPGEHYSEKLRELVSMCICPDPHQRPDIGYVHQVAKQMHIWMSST

INSR (human) = INSR (human) (UniProt P06213)
PRKCB1 (human) = PRKCB1 (human) (UniProt P05771)
STK24 (human) = STK24 (human) (UniProt Q9Y6E0)
TGFBR2 (human) = TGFBR2 (human) (UniProt P37173)
PRKG2 (human) = PRKG2 (human) (UniProt Q13237)
HCK (human) = HCK (human) (UniProt P08631)
HCK (human), sequence (P08631 whole entry, looked up): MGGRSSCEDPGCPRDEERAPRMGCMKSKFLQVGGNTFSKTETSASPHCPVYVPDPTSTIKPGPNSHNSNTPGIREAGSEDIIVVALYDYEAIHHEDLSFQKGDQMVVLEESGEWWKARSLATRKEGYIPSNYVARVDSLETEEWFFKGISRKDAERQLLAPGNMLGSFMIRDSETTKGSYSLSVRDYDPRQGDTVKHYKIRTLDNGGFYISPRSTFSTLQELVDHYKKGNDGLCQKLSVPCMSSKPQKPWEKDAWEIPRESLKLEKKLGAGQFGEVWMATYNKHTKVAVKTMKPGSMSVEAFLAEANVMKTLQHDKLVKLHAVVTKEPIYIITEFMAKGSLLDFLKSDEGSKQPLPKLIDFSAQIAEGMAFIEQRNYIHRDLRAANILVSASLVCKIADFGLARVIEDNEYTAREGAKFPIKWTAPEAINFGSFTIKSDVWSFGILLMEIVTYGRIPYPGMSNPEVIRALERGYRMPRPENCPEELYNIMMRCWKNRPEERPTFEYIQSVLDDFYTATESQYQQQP

MUSK (human) = MUSK (human) (UniProt O15146)
EPHA2 (human) = EPHA2 (human) (UniProt P29317)
MAP4K5 (human) = MAP4K5 (human) (UniProt Q9Y4K4)
PAK2 (human) = PAK2 (human) (UniProt Q13177)
CSNK1G2 (human) = CSNK1G2 (human) (UniProt P78368)
DYRK3 (human) = DYRK3 (human) (UniProt O43781)
NUAK2 (human) = NUAK2 (human) (UniProt Q9H093)
MAPK9 (human) = MAPK9 (human) (UniProt P45984)
MAPK9 (human), sequence (P45984 whole entry, looked up): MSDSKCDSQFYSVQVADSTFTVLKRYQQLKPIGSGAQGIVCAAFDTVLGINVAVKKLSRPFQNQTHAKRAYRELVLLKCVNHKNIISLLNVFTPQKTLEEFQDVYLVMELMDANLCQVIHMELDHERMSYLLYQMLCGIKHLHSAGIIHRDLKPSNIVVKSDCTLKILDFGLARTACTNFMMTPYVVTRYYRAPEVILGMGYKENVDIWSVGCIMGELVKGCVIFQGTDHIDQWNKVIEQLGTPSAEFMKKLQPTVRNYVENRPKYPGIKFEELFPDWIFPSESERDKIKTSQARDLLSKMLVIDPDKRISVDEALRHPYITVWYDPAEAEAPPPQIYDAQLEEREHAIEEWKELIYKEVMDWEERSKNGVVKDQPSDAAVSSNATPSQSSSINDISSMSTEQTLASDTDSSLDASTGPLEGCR

MET (human) = MET (human) (UniProt P08581)
NEK1 (human) = NEK1 (human) (UniProt Q96PY6)
NEK1 (human), sequence (Q96PY6 whole entry, looked up): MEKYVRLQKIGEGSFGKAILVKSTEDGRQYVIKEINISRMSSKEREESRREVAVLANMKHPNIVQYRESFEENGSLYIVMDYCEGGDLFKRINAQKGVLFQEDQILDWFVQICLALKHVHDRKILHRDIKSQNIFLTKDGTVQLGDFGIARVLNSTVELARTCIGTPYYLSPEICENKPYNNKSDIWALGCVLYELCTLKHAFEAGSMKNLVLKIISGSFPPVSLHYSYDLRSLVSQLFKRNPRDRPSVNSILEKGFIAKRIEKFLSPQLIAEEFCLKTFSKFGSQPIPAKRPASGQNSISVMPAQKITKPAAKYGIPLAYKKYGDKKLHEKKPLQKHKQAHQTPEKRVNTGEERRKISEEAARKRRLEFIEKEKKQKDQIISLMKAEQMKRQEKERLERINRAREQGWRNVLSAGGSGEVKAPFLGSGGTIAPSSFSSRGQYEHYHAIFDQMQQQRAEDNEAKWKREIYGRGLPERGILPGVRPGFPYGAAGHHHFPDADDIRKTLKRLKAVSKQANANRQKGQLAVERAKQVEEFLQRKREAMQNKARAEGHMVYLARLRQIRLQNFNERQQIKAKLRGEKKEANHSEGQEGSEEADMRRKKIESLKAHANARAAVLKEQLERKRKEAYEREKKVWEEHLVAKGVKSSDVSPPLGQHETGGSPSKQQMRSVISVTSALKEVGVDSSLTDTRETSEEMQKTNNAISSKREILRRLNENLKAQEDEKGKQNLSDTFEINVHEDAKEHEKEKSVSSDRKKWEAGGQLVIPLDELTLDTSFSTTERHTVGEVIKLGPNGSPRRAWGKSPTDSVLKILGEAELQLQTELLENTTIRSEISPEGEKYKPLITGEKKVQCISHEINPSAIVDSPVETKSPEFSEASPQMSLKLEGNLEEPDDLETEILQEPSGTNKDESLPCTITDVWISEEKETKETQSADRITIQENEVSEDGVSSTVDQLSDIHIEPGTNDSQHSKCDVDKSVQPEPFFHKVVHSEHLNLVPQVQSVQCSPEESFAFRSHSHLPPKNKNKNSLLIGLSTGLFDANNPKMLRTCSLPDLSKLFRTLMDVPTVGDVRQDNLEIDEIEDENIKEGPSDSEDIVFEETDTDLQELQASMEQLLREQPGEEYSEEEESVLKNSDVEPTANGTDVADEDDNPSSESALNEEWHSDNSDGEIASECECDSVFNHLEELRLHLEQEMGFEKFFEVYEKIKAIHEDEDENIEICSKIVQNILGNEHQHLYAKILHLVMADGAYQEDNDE

RIPK2 (human) = RIPK2 (human) (UniProt O43353)
FGFR1 (human) = FGFR1 (human) (UniProt P11362)
OXSR1 (human) = OXSR1 (human) (UniProt O95747)
CAMK2G (human) = CAMK2G (human) (UniProt Q13555)
CAMK2G (human), sequence (Q13555 whole entry, looked up): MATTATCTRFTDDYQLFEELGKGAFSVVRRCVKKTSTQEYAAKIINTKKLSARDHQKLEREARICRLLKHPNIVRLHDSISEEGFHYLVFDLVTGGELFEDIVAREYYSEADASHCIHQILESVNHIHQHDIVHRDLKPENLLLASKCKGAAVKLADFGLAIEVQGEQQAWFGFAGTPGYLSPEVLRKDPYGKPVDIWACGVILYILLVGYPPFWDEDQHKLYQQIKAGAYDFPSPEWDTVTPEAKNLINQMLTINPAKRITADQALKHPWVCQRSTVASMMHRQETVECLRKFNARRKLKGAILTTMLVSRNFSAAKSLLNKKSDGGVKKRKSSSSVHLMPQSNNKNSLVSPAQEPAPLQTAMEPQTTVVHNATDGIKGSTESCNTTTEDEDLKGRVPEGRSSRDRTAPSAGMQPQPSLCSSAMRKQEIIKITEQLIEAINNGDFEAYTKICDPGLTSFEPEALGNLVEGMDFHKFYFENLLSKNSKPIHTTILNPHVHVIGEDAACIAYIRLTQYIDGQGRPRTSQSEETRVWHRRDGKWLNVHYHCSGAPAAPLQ

TTK (human) = TTK (human) (UniProt P33981)
NEK7 (human) = NEK7 (human) (UniProt Q8TDX7)
SRPK3 (human) = SRPK3 (human) (UniProt Q9UPE1)
PTK2 (human) = PTK2 (human) (UniProt Q05397)
IKBKE (human) = IKBKE (human) (UniProt Q14164)
MATK (human) = MATK (human) (UniProt P42679)
CAMK2A (human) = CAMK2A (human) (UniProt Q9UQM7)
PRKX (human) = PRKX (human) (UniProt P51817)
NTRK3 (human) = NTRK3 (human) (UniProt Q16288)
MST4 (human) = MST4 (human) (UniProt Q9P289)
EPHA3 (human) = EPHA3 (human) (UniProt P29320)
EPHA3 (human), sequence (P29320 whole entry, looked up): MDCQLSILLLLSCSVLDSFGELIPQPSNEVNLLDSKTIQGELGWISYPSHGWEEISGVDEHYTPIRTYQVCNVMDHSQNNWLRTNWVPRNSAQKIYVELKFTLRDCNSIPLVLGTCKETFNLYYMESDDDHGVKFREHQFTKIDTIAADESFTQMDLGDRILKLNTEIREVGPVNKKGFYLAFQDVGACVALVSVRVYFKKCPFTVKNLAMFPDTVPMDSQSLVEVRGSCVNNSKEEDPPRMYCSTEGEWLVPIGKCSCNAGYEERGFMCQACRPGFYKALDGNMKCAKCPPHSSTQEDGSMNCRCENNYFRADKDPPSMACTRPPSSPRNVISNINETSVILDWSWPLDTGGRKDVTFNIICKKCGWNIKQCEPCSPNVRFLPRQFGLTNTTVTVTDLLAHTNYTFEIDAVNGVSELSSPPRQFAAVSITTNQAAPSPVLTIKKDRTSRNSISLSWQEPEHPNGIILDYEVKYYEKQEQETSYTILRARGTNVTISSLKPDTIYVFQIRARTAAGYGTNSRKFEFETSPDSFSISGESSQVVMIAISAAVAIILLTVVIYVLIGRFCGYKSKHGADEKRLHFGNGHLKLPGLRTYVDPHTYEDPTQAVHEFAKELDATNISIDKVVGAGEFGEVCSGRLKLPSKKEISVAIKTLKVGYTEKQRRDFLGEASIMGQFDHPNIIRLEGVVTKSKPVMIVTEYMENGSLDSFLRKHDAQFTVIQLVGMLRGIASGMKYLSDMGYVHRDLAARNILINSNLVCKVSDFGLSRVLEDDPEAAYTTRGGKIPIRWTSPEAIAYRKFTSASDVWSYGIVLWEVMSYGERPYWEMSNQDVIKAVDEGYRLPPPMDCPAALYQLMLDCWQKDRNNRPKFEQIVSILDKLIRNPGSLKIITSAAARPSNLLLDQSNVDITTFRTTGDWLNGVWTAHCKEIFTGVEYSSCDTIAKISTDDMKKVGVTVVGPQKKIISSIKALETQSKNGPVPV

RPS6KA6 KD1 KD2 (human) = RPS6KA6 KD1 KD2 (human) (UniProt Q9UK32)
CDC42BPB (human) = CDC42BPB (human) (UniProt Q9Y5S2)
ADRBK2 (human) = ADRBK2 (human) (UniProt P35626)
PTK6 (human) = PTK6 (human) (UniProt Q13882)
PTK6 (human), sequence (Q13882 whole entry, looked up): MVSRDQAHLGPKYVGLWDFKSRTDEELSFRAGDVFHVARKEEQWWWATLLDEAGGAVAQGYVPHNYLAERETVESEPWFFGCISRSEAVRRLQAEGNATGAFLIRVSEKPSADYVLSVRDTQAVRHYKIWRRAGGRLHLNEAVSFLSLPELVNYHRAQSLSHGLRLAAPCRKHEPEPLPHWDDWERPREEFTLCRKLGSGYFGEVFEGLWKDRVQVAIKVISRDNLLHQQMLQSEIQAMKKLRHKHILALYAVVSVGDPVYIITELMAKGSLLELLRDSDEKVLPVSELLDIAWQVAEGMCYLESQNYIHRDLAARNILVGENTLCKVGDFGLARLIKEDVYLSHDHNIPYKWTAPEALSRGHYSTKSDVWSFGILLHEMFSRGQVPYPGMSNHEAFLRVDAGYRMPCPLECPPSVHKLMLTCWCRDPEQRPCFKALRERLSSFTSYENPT

PIM1 (human), sequence (P11309 whole entry, looked up): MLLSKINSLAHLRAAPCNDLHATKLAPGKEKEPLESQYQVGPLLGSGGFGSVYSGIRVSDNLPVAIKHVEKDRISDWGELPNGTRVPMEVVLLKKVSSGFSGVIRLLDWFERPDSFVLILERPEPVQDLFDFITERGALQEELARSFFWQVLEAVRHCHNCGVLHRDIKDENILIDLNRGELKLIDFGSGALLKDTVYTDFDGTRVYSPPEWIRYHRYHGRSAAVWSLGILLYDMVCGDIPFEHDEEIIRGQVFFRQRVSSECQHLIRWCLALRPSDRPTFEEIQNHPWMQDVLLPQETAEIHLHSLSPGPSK

CCC(=O)Nc1ccc2ncnc(Nc3cccc(Br)c3)c2c1
residual activity (PIM1 (human)): 85.3% | residual activity (EPHA8 (human)): 96.6% | residual activity (FYN (human)): 107% | residual activity (CAMK4 (human)): 103% | residual activity (MARK1 (human)): 98.5% | residual activity (SLK (human)): 90% | residual activity (NEK6 (human)): 105% | residual activity (INSR (human)): 101% | residual activity (PRKCB1 (human)): 99.2% | residual activity (STK24 (human)): 102% | residual activity (TGFBR2 (human)): 116% | residual activity (PRKG2 (human)): 110% | residual activity (HCK (human)): 93% | residual activity (MUSK (human)): 87.8% | residual activity (EPHA2 (human)): 101% | residual activity (MAP4K5 (human)): 89% | residual activity (PAK2 (human)): 101% | residual activity (CSNK1G2 (human)): 98.1% | residual activity (DYRK3 (human)): 92.3% | residual activity (NUAK2 (human)): 77.4% | residual activity (MAPK9 (human)): 78.3% | residual activity (MET (human)): 103% | residual activity (NEK1 (human)): 76.9% | residual activity (RIPK2 (human)): 71.4% | residual activity (FGFR1 (human)): 108% | residual activity (OXSR1 (human)): 107% | residual activity (CAMK2G (human)): 105% | residual activity (TTK (human)): 113% | residual activity (NEK7 (human)): 92.7% | residual activity (SRPK3 (human)): 97% | residual activity (PTK2 (human)): 99.4% | residual activity (IKBKE (human)): 94.9% | residual activity (MATK (human)): 93.4% | residual activity (CAMK2A (human)): 85.7% | residual activity (PRKX (human)): 95.7% | residual activity (NTRK3 (human)): 95.8% | residual activity (MST4 (human)): 97.6% | residual activity (EPHA3 (human)): 106% | residual activity (RPS6KA6 KD1 KD2 (human)): 90.6% | residual activity (CDC42BPB (human)): 114% | residual activity (ADRBK2 (human)): 99.2% | residual activity (PTK6 (human)): 57.2%
